In PubChem BioAssay AID214 (DTP/NCI, 2004) one finds T/C data, which are given here for 19 molecules.

The experiment concerns B6C3F1 mice, colon carcinoma 38 s.c., T/C. Briefly: NCI In Vivo Anticancer Drug Screen. Data for tumor model Colon Carcinoma 38 (subcutaneous) in B6C3F1 mice. The note with it: endpoint: median tumor weight (est.), schedule: Q07DX002 (ip), higher = larger tumour. How it is done: The antitumor activity of compounds was measured in mice bearing transplantable tumors. Survival or tumor size were measured and the results are expressed as the measurement made in the treated group (T) divided by the measurement made in the vehicle treated control group (C). The tumor model used in this assay is Colon Carcinoma 38 (subcutaneous) in B6C3F1 mice

Where [1] appears, read: dose: 150.0 mg/kg/injection, vehicle: saline.
Where [2] appears, read: dose: 300.0 mg/kg/injection, vehicle: saline.
The mark [3] stands for this setting: dose: 25.0 mg/kg/injection, vehicle: saline.
The mark [4] stands for this setting: dose: 50.0 mg/kg/injection, vehicle: saline.
Setting [5] is: dose: 100.0 mg/kg/injection, vehicle: saline.
[6] abbreviates: dose: 200.0 mg/kg/injection, vehicle: saline.
Setting [7] is: dose: 25.0 mg/kg/injection, vehicle: saline with Tween-80.
[8] abbreviates: dose: 50.0 mg/kg/injection, vehicle: saline with Tween-80.
The mark [9] stands for this setting: dose: 100.0 mg/kg/injection, vehicle: saline with Tween-80.

Values joined by “and” are separate entries in the source; they are usually repeats but may differ in a detail not shown here. Equal entries are not always repeated. Inconclusive results are not listed.

As for `OCC(O)C(O)C(O)C(O)CO` (configuration not stated), the T/C by setting is: (dose: 75.0 mg/kg/injection, vehicle: saline) 90 % of control; under setting [1], 66 % of control; under setting [2], 111 % of control; (dose: 600.0 mg/kg/injection, vehicle: saline) 92 % of control; (dose: 1200.0 mg/kg/injection, vehicle: saline) 86 % of control.
Regarding `O=P1(N(CCCl)CCCl)NCCCO1` (configuration not stated), the T/C by setting is: under setting [3], 44 % of control; under setting [4], 52 % of control; under setting [5], 13 % of control; under setting [6], 7 % of control.
Turning to `C=C(C(=O)O)C(N)C(=O)O` (configuration not stated), the T/C is 56 % of control under setting [1] and 94 % of control under setting [2].
For `C(=N/NC1=NCCN1)/c1c2ccccc2c(/C=N\NC2=NCCN2)c2ccccc12`, the T/C (dose: 6.25 mg/kg/injection, vehicle: saline) is 100 % of control; the T/C (dose: 12.5 mg/kg/injection, vehicle: saline) is 55 % of control; the T/C under setting [3] was 112 % of control; the T/C under setting [4] is 81 % of control; the T/C under setting [5] is 36 % of control.
Turning to `Nc1nc(N)c2c(ccc3c2ccn3Cc2cccc([N+](=O)[O-])c2)n1`, the T/C was 61 % of control (dose: 3.13 mg/kg/injection, vehicle: saline with Tween-80); 102 % of control (dose: 6.25 mg/kg/injection, vehicle: saline with Tween-80); 85 % of control (dose: 12.5 mg/kg/injection, vehicle: saline with Tween-80); 57 % of control under setting [7]; 12 % of control under setting [8].
On to `C[C@@]1(CO)[C@H](O)CC[C@@]2(C)[C@H]1CC[C@H]1C[C@@H]3C[C@@]12CC[C@@]3(O)COC(=O)CN`, for which the T/C (dose: 0.4 mg/kg/injection, vehicle: saline + alcohol) is 61 % of control; the T/C (dose: 0.8 mg/kg/injection, vehicle: saline + alcohol) is 88 % of control; the T/C (dose: 1.6 mg/kg/injection, vehicle: saline + alcohol) was 54 % of control; the T/C (dose: 3.2 mg/kg/injection, vehicle: saline + alcohol) is 63 % of control; the T/C (dose: 6.4 mg/kg/injection, vehicle: saline + alcohol) is 106 % of control.
On to `CCC(NC(N)=O)C(CC)NC(N)=O` (configuration not stated), for which the T/C by setting is: under setting [7], 83 % of control; under setting [8], 88 % of control; under setting [9], 81 % of control.
For the molecule `COc1ccc2cc1Oc1ccc(cc1)C[C@H]1c3cc(c(OC)cc3CCN1C)Oc1c(OC)c(OC)cc3c1[C@H](C2)N(C)CC3`, the T/C is 102 % of control and 106 % of control (dose: 150.0 mg/kg/injection, vehicle: saline with Tween-80); 57 % of control (dose: 300.0 mg/kg/injection, vehicle: saline with Tween-80); 29 % of control (dose: 600.0 mg/kg/injection, vehicle: saline with Tween-80).
As to `Cc1cc(Nc2ccc3c(c2)OCO3)c2cc3c(cc2n1)OCO3`, the T/C is 78 % of control and 103 % of control (dose: 50.0 mg/kg/injection, vehicle: Klucel (hydroxypropylcellulose) (HPC)); 96 % of control and 113 % of control and 115 % of control (dose: 100.0 mg/kg/injection, vehicle: Klucel (hydroxypropylcellulose) (HPC)).
For the molecule `O=C(c1cccnc1)c1cc(-c2ccccn2)c(=O)n2ccccc12`, the T/C under setting [6] was 75 % of control; the T/C (dose: 400.0 mg/kg/injection, vehicle: saline) is 83 % of control; the T/C (dose: 800.0 mg/kg/injection, vehicle: saline) is 88 % of control.
As to `COCCCNC1=C(C#N)C(=O)NC(c2cccc([N+](=O)[O-])c2)S1` (configuration not stated), the T/C is, setting by setting: (dose: 225.0 mg/kg/injection, vehicle: saline with Tween-80) 172 % of control; (dose: 450.0 mg/kg/injection, vehicle: saline with Tween-80) 171 % of control; (dose: 900.0 mg/kg/injection, vehicle: saline with Tween-80) 159 % of control.
As for `COc1cc(C)c(C2NC(=O)c3ccccc3N2)cc1C` (configuration not stated), the T/C was 70 % of control (dose: 450.0 mg/kg/injection, vehicle: Klucel (hydroxypropylcellulose) (HPC)); 53 % of control (dose: 900.0 mg/kg/injection, vehicle: Klucel (hydroxypropylcellulose) (HPC)); 115 % of control (dose: 1800.0 mg/kg/injection, vehicle: Klucel (hydroxypropylcellulose) (HPC)); 55 % of control (dose: 3600.0 mg/kg/injection, vehicle: Klucel (hydroxypropylcellulose) (HPC)).
`CCCNC1=C(C)C(=O)C2=C(C1=O)[C@H](COC(N)=O)[C@]1(OC)[C@@H]3N[C@@H]3CN21`: the T/C runs as follows: (dose: 1.5 mg/kg/injection, vehicle: suspension in saline) 73 % of control; (dose: 3.0 mg/kg/injection, vehicle: suspension in saline) 114 % of control; (dose: 6.0 mg/kg/injection, vehicle: suspension in saline) 112 % of control; (dose: 12.0 mg/kg/injection, vehicle: suspension in saline) 33 % of control; (dose: 24.0 mg/kg/injection, vehicle: suspension in saline) 36 % of control.
On to `S=C(NCNC(=S)c1ccncc1)c1ccncc1`, for which the T/C reads like this: under setting [9], 70 % of control; (dose: 200.0 mg/kg/injection, vehicle: saline with Tween-80) 104 % of control; (dose: 400.0 mg/kg/injection, vehicle: saline with Tween-80) 70 % of control; (dose: 800.0 mg/kg/injection, vehicle: saline with Tween-80) 66 % of control.
As for `CC(=O)OC1C(O)C(C)OC(OC2C(OC(=O)C3CCC4C(C3)OC3(CC(OC(=O)/C=C/c5ccccc5)C(C)CO3)C43CO3)OC(C)C(O)C2OC(C)=O)C1O` (configuration not stated), the T/C runs as follows: (dose: 3.75 mg/kg/injection, vehicle: distilled water + Tween-80) 93 % of control; (dose: 7.5 mg/kg/injection, vehicle: distilled water + Tween-80) 95 % of control; (dose: 15.0 mg/kg/injection, vehicle: distilled water + Tween-80) 64 % of control; (dose: 30.0 mg/kg/injection, vehicle: distilled water + Tween-80) 168 % of control; (dose: 60.0 mg/kg/injection, vehicle: distilled water + Tween-80) 168 % of control.
In the case of `CC1CCC(NC(=O)N(CCCl)N=O)CC1` (configuration not stated), the T/C is, setting by setting: (dose: 4.0 mg/kg/injection, vehicle: Klucel (hydroxypropylcellulose) (HPC)) 101 % of control; (dose: 8.0 mg/kg/injection, vehicle: Klucel (hydroxypropylcellulose) (HPC)) 69 % of control; (dose: 16.0 mg/kg/injection, vehicle: Klucel (hydroxypropylcellulose) (HPC)) 34 % of control; (dose: 32.0 mg/kg/injection, vehicle: Klucel (hydroxypropylcellulose) (HPC)) 17 % of control.
Regarding `COc1cccc(-c2cc(=O)c3cccc(CC(=O)O)c3o2)c1`, under setting [5], the T/C is 3 % of control.
For the molecule `CN(C)CCCNc1c2ccccc2nc2cccc([N+](=O)[O-])c12`, the T/C reads like this: (dose: 0.03 mg/kg/injection, vehicle: saline) 104 % of control; (dose: 0.06 mg/kg/injection, vehicle: saline) 79 % of control and 221 % of control.
With `COc1cc2c(ccc3c4cc(OC)c(OC)cc4c[n+](C)c23)cc1O`, the T/C was 89 % of control (dose: 100.0 mg/kg/injection, vehicle: suspension in saline) and 81 % of control (dose: 200.0 mg/kg/injection, vehicle: suspension in saline).
